For 26 compounds, IC50 results are on record in patent publication US20260250290A1 (BRISTOL-MYERS SQUIBB COMPANY, priority 2023, published 2026).

pIC50: −log10 of the molar value. Structures can show the parent of a compound that is named as a salt.

The assay has as its target T1, full length SGK1 (Homo sapiens, UniProt O00141).
T1 construct: 125 μM full length SGK1 (Life Technologies Part #PR7358A); purchased Life Technologies PR7358A
T1 sequence (O00141 1-431): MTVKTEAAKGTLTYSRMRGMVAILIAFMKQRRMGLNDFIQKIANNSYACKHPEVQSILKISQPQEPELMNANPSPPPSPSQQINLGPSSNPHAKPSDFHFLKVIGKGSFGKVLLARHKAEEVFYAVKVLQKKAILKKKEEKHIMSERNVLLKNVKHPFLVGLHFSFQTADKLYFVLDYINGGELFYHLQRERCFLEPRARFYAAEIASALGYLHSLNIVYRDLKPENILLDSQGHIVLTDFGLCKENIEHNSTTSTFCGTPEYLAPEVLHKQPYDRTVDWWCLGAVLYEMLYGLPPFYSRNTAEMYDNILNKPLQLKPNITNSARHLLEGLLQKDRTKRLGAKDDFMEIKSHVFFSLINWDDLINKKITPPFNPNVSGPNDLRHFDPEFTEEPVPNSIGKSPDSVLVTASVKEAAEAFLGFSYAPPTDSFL
The assay is described as follows: SGK1 inhibition Assay A (Caliper LabChip electrophoretic separation of fluorescent peptide substrate and phosphorylated product). In kind it is biochemical. The note with it: Assay A; 20 μM ATP, 40 min incubation; read-out: SGK1 IC50.
As usually defined, the pIC50 is −log10 of the IC50, conventionally taken in molar units. Turning to `C=Cc1cccc(C(=O)N[C@@H]2CCCN(c3cc(-c4ccc(S(C)(=O)=O)cc4)n4ncnc(N)c34)C2)c1` [Example 80, (R)-N-(1-(4-amino-7-(4-(methylsulfonyl)phenyl)pyrrolo[2,1-f][1,2,4]triazin-5-yl)piperidin-3-yl)-3-vinylbenzamide], the pIC50 was 7.85.
In the case of `CC(=O)N1CC=C(c2cc(N3CCC[C@@H](NC(=O)c4cc(C5CC5)[nH]n4)C3)c3c(N)ncnn23)C1` [Example 747], the pIC50 is 7.89.
Under `CC(=O)N1CC=C(c2cc(N3CCC[C@@H](NC(=O)c4cn5ccc(C#N)cc5n4)C3)c3c(N)ncnn23)C1` [Example 679, (R)—N-(1-(7-(1-acetyl-2,5-dihydro-1H-pyrrol-3-yl)-4-aminopyrrolo[2,1-f][1,2,4]triazin-5-yl)piperidin-3-yl)-7-cyanoimidazo[1,2-a]pyridine-2-carboxamide] stands 6.32; under `CN1CCN(c2cccc(C(=O)N[C@@H]3CCCN(c4cc(-c5ccnn5C)n5ncnc(N)c45)C3)n2)CC1` [Example 795, (R)-N-(1-(4-amino-7-(1-methyl-1H-pyrazol-5-yl)pyrrolo[2,1-f][1,2,4]triazin-5-yl)piperidin-3-yl)-6-(4-methylpiperazin-1-yl)picolinamide], 7.06.
Under “methyl (R)-3-(4-amino-5-(3-(6-(4-methylpiperazin-1-yl)picolinamido)piperidin-1-yl)pyrrolo[2,1-f][1,2,4]triazin-7-yl)-2,5-dihydro-1H-pyrrole-1-carboxylate [Example 789]” stands 7.77; under `CC(=O)N1CC=C(c2cc(N3CCC[C@@H](NC(=O)c4ccnc(N5CC6(C5)CN(C(C)C)C6)n4)C3)c3c(N)ncnn23)C1` [Example 752, (R)-N-(1-(7-(1-acetyl-2,5-dihydro-1H-pyrrol-3-yl)-4-aminopyrrolo[2,1-f][1,2,4]triazin-5-yl)piperidin-3-yl)-2-(6-isopropyl-2,6-diazaspiro[3.3]heptan-2-yl)pyrimidine-4-carboxamide], 7.10; under `CC(O)c1cccc(-c2cc(N3CCC[C@@H](NC(=O)c4ccc(Cl)s4)C3)c3c(N)ncnn23)c1` (stereo partly drawn) [Example 240, N-[(3R)-1-{4-amino-7-[3-(1-hydroxyethyl)phenyl]pyrrolo[2,1-f][1,2,4]triazin-5-yl}piperidin-3-yl]-5-chlorothiophene-2-carboxamide], 7.85.
For `CC(=O)N1CC=C(c2cc(N3CCC[C@@H](NC(=O)c4sc(Cl)cc4OC4CCNCC4F)C3)c3c(N)ncnn23)C1` (single isomer, unassigned) [Example 600D] the value was 7.72; for `CC(C)(C)OC(=O)N[C@@H]1CCCN(c2cc(-c3ccc(S(C)(=O)=O)cc3)n3ncnc(N)c23)C1` [Example 11, tert-butyl (R)-(1-(4-amino-7-(4-(methylsulfonyl)phenyl)pyrrolo[2,1-f][1,2,4]triazin-5-yl)piperidin-3-yl)carbamate], 5.76.
Consider `CC(=O)N1CC=C(c2cc(N3CCC[C@@H](NC(=O)c4cccc(N5CC[C@@H](O)C5)n4)C3)c3c(N)ncnn23)C1` [Example 770, N-((R)-1-(7-(1-acetyl-2,5-dihydro-1H-pyrrol-3-yl)-4-aminopyrrolo[2,1-f][1,2,4]triazin-5-yl)piperidin-3-yl)-6-((R)-3-hydroxypyrrolidin-1-yl)picolinamide], for which the pIC50 is 8.15.
For `COc1ccc(C(=O)NC2CCCN(c3cc(-c4ccc(S(C)(=O)=O)cc4)n4ncnc(N)c34)C2)cc1` (centres unmarked) [Example 8, N-(1-(4-amino-7-(4-(methylsulfonyl)phenyl)pyrrolo[2,1-f][1,2,4]triazin-5-yl)piperidin-3-yl)-4-methoxybenzamide, TFA] the value was 7.17; for `CC(=O)N1CC=C(c2cc(N3CCC[C@@H](NC(=O)c4sc(C(F)F)cc4C4CCN(C)CC4)C3)c3c(N)ncnn23)C1` [Example 393], 6.71.
For `CC(=O)N1CC=C(c2cc(N3CCC[C@@H](NC(=O)c4ccnc(N(C)C)c4)C3)c3c(N)ncnn23)C1` [Example 717] the value was 7.41; for `CC(=O)N1CC=C(c2cc(N3CCC[C@@H](NC(=O)c4sc(C)nc4OC4CCN(C)CC4)C3)c3c(N)ncnn23)C1` [Example 357, (R)—N-(1-(7-(1-acetyl-2,5-dihydro-1H-pyrrol-3-yl)-4-aminopyrrolo[2,1-f][1,2,4]triazin-5-yl)piperidin-3-yl)-2-methyl-4-((1-methylpiperidin-4-yl)oxy)thiazole-5-carboxamide], 7.62.
Under `CC(=O)Nc1cccc(-c2cc(N3CCC[C@@H](NC(=O)c4ccc(Cl)s4)C3)c3c(N)ncnn23)c1` [Example 208, (R)-N-(1-(7-(3-acetamidophenyl)-4-aminopyrrolo[2,1-f][1,2,4]triazin-5-yl)piperidin-3-yl)-5-chlorothiophene-2-carboxamide] stands 7.70; under `CC(=O)N1CC=C(c2cc(N3CCC[C@@H](NC(=O)c4cccc(N5CCNC(C)(C)C5)n4)C3)c3c(N)ncnn23)C1` [Example 773, (R)-N-(1-(7-(1-acetyl-2,5-dihydro-1H-pyrrol-3-yl)-4-aminopyrrolo[2,1-f][1,2,4]triazin-5-yl)piperidin-3-yl)-6-(3,3-dimethylpiperazin-1-yl)picolinamide], 9.00; under `Nc1ncnn2c(C3=CCN(C(=O)[C@@H]4CCNC4)C3)cc(N3CCC[C@@H](NC(=O)c4ccc(Cl)s4)C3)c12` [Example 896, N-((R)-1-(4-amino-7-(1-((R)-pyrrolidine-3-carbonyl)-2,5-dihydro-1H-pyrrol-3-yl)pyrrolo[2,1-f][1,2,4]triazin-5-yl)piperidin-3-y1)-5-chlorothiophene-2-carboxamide, TFA], 8.00.
On to `CC(=O)N1CC=C(c2cc(N3CCC[C@@H](NC(=O)c4cc5cc(F)ccc5[nH]4)C3)c3c(N)ncnn23)C1` [Example 517, (R)-N-(1-(7-(1-acetyl-2,5-dihydro-1H-pyrrol-3-yl)-4-aminopyrrolo[2,1-f][1,2,4]triazin-5-yl)piperidin-3-yl)-5-fluoro-1H-indole-2-carboxamide], for which the pIC50 is 7.55.
Under `Cc1cc(-c2cc(N3CCC[C@@H](NC(=O)c4sc(C(F)F)cc4OC4CCN(C)CC4)C3)c3c(N)ncnn23)cnc1C#N` [Example 439, (R)-N-(1-(4-amino-7-(6-cyano-5-methylpyridin-3-yl)pyrrolo[2,1-f][1,2,4]triazin-5-yl)piperidin-3-yl)-5-(difluoromethyl)-3-((1-methylpiperidin-4-yl)oxy)thiophene-2-carboxamide] stands 8.70; under `CC(=O)N1CC=C(c2cc(N3CCC[C@@H](NC(=O)c4cc(C5CC5)n(C)n4)C3)c3c(N)ncnn23)C1` [Example 739, (R)-N-(1-(7-(1-acetyl-2,5-dihydro-1H-pyrrol-3-yl)-4-aminopyrrolo[2,1-f][1,2,4]triazin-5-yl)piperidin-3-yl)-5-cyclopropyl-1-methyl-1H-pyrazole-3-carboxamide], 7.01.
For `CN(C)CCOc1cc(Cl)sc1C(=O)N[C@@H]1CCCN(c2cc(C3=CCN(C(=O)CC(F)(F)F)C3)n3ncnc(N)c23)C1` [Example 176, (R)-N-(1-(4-amino-7-(1-(3,3,3-trifluoropropanoyl)-2,5-dihydro-1H-pyrrol-3-yl)pyrrolo[2,1-f][1,2,4]triazin-5-yl)piperidin-3-yl)-5-chloro-3-(2-(dimethylamino)ethoxy) thiophene-2-carboxamide, 2 TFA] the value was 8.40; for `COc1cc(-c2cc(N3CCC[C@@H](NC(=O)c4ccc(Cl)s4)C3)c3c(N)ncnn23)ccn1` [Example 215, (R)-N-(1-(4-amino-7-(2-methoxypyridin-4-yl)pyrrolo[2,1-f][1,2,4]triazin-5-yl)piperidin-3-yl)-5-chlorothiophene-2-carboxamide, TFA], 8.22.
`CS(=O)(=O)N1CC=C(c2cc(N3CCC[C@@H](NC(=O)c4cccs4)C3)c3c(N)ncnn23)C1` [Example 135, (R)—N-(1-(4-amino-7-(1-(methylsulfonyl)-2,5-dihydro-1H-pyrrol-3-yl)pyrrolo[2,1-f][1,2,4]triazin-5-yl)piperidin-3-yl)thiophene-2-carboxamide, TFA]: the pIC50 was 8.52.
For `Nc1ncnn2c(-c3ccnc(C(F)F)c3)cc(N3CCC[C@@H](NC(=O)c4sc(Cl)cc4OCCN4CCC(F)(F)CC4)C3)c12` [Example 293, (R)-N-(1-(4-amino-7-(2-(difluoromethyl)pyridin-4-yl)pyrrolo[2,1-f][1,2,4]triazin-5-yl)piperidin-3-yl)-5-chloro-3-(2-(4,4-difluoropiperidin-1-yl)ethoxy)thiophene-2-carboxamide] the value was 8.05.
Under `CN(C)CCOc1cc(Cl)sc1C(=O)N[C@@H]1CCCN(c2cc(-c3ccc(C(F)F)nc3)n3ncnc(N)c23)C1` [Example 189, (R)-N-(1-(4-amino-7-(6-(difluoromethyl)pyridin-3-yl)pyrrolo[2,1-f][1,2,4]triazin-5-yl)piperidin-3-yl)-5-chloro-3-(2-(dimethylamino)ethoxy) thiophene-2-carboxamide] stands 8.70; under `CS(=O)(=O)N1CC=C(c2cc(N3CCC[C@@H](NC(=O)c4ccc(Cl)s4)C3)c3c(N)ncnn23)C1` [Example 134, (R)—N-(1-(4-amino-7-(1-(methylsulfonyl)-2,5-dihydro-1H-pyrrol-3-yl)pyrrolo[2,1-f][1,2,4]triazin-5-yl)piperidin-3-yl)-5-chlorothiophene-2-carboxamide], 8.70.
